Measurements taken from patent publication US20090118314A1, “TUMOR SUPPRESSOR” (JAPAN AS REPRESENTED BY DIRECTOR GENERAL OF AGENCY CENTER, priority 2006, published 2009).

Legend:
PAI-1 = PAI-1 (Homo sapiens, UniProt P05121); experiment: PAI-1 inhibitory activity using synthetic substrate S-2288; format: biochemical
Source text: PAI-1 inhibitory activity can be measured using a synthetic substrate S-2288 according to the methods described in International Publication WO04/011442 pamphlet, International Publication WO04/10996 pamphlet, JP-A-2004-250401, etc.

Min mice = experiment: Cancer suppression test (intestinal polyp development) in Min mice; format: in vivo; details: male Min mice, 100 ppm in feed, sacrificed at 15 weeks old
Source text: That is to say, the inventors used, as a test system, familial adenomatous polyposis (FAP) model mice (Apc gene hetero-deficient mice) belonging to a high risk group of large intestinal cancer. These model mice have two characteristics. […] Thus, this mouse can be used as an experimental animal model useful for examining the relationship between a hyperlipidemia condition and large intestinal cancer. In this test, based on the fact that expression of PAI-1 was increased in the polyps of FAP patients and that expression of PAI-1 was induced by triglyceride, the action of suppressing the development of intestinal polyps of a PAI-1-inhibiting compound was evaluated using Min mice that were one type of Apc gene-deficient mice.
5-week-old male Min mice (CLEA Japan, Inc.) were purchased. After giving a basic feed (AIN-76A) to the mice for 1 week, 100 ppm of a test substance was mixed into the feed, and the mixed feed was then given to the mice. On the other hand, in the case of wild-type mice also, the same amount of the test substance was mixed into the feed, and the mixed feed was then given to the wild-type mice. The body weight and the feed intake were measured every week. The mice were sacrificed under anesthesia, when they were 15 weeks old. Then, the weights of main organs (spleen and heart) were measured. Small intestine and large intestine were washed and were then excised in a longitudinal direction, followed by fixing with formalin. The number of intestinal polyps in the small intestine and large intestine were counted and the size thereof were measured under a stereoscopic microscope.

PAI-1, sequence (P05121 24-402, species assumed): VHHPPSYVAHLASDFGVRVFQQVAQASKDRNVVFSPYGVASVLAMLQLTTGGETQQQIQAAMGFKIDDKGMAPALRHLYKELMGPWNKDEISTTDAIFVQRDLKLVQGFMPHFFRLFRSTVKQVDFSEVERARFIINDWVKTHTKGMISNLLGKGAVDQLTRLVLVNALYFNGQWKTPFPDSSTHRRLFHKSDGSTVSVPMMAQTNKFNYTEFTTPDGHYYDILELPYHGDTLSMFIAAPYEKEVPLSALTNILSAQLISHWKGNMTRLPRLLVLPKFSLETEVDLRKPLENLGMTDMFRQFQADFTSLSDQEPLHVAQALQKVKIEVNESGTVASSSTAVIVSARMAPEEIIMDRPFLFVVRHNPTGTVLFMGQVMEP

IC50 (PAI-1) [nM] | Structure (SMILES) | further results
350 | O=C(O)C(CCCCCOc1ccc2cc(-c3nc(OCc4ccccc4)cc(-c4ccccc4)n3)ccc2c1)C(=O)O [compound 47, [5-[[6-[4-phenyl-6-(phenylmethoxy)-2-pyrimidinyl]-2-naphthalenyl]oxy]pentyl]propanedioic acid] | 
320 | CC(C)(C)c1cc(OCC2CCCCC2)nc(-c2ccc3cc(OCCCCCC(C(=O)O)C(=O)O)ccc3c2)n1 [compound 48, [5-[[6-[4-cyclohexylmethoxy-6-(1,1-dimethylethyl)-2-pyrimidinyl]-2-naphthalenyl]oxy]pentyl]propanedioic acid] | 
290 | CC(C)(C)c1cc(OCc2ccc(F)cc2)nc(-c2ccc3cc(OCCCCCC(C(=O)O)C(=O)O)ccc3c2)n1 [compound 49, [5-[[6-[4-(1,1-dimethylethyl)-6-[(4-fluorophenyl)methoxy]-2-pyrimidinyl]-2-naphthalenyl]oxy]pentyl]propanedioic acid] | 
220 | CC(C)(C)c1cc(OCc2ccccc2Cl)nc(-c2ccc3cc(OCCCCCC(C(=O)O)C(=O)O)ccc3c2)n1 [compound 50, [5-[[6-[4-[(2-chlorophenyl)methoxy]-6-(1,1-dimethylethyl)-2-pyrimidinyl]-2-naphthalenyl]oxy]pentyl]propanedioic acid] | 

The next lines start with the compound.

Structure (SMILES) | IC50 (PAI-1) [nM] | further results
CC(C)(C)c1ccc2oc(-c3ccc4cc(OCCCCCC(C(=O)O)C(=O)O)ccc4c3)nc2c1 [Compound No. 20, [5-[[6-[5-(1,1-dimethylethyl)-2-benzoxazolyl]-2-naphthalenyl]oxy]pentyl]propanedioic acid] | 440 | development of intestinal polyps in the proximal portion of small intestine (Min mice): suppressed particularly strongly; distribution of the polyp size (Min mice): a decrease in the size was observed overall; polyps with a diameter size of 1 mm or less (Min mice): significantly decreased; weight of heart (indicator of anemia caused by bleeding associated with intestinal polyps) (Min mice): significantly reduced; weight of spleen (indicator of anemia caused by bleeding associated with intestinal polyps) (Min mice): significantly reduced; total number of polyps per mouse, decreased to (Min mice; small and large intestine): approximately 66%
O=C(O)C(CCCCCOc1ccc2cc(-c3nc(-c4ccccc4)c(-c4ccccc4)o3)ccc2c1)C(=O)O [compound 6, [5-[[6-(4,5-diphenyl-2-oxazolyl)-2-naphthalenyl]oxy]pentyl]propanedioic acid] | 940 | 
Cc1ccc(-c2nc(-c3ccc4cc(OCCCCCC(C(=O)O)C(=O)O)ccc4c3)oc2-c2ccc(C)cc2)cc1 [compound 7, [5-[[6-[4,5-bis(4-methylphenyl)-2-oxazolyl]-2-naphthalenyl]oxy]pentyl]propanedioic acid] | 590 | 
O=C(O)C(CCCOc1ccc2cc(-c3nc4cc(-c5ccccc5)ccc4o3)ccc2c1)C(=O)O [compound 13, [3-[[6-(5-phenyl-2-benzoxazolyl)-2-naphthalenyl]oxy]propyl]propanedioic acid] | 540 | 
O=C(O)C(CCCCCOc1ccc2cc(-c3nc4ccc(OCC5CCCCC5)cc4o3)ccc2c1)C(=O)O [compound 23, [5-[[6-[6-(cyclohexylmethoxy)-2-benzoxazolyl]-2-naphthalenyl]oxy]pentyl]propanedioic acid] | 390 | 
O=C(O)C(CCCCCOc1ccc2cc(-c3nc4ccc(OCc5ccccc5)cc4o3)ccc2c1)C(=O)O [compound 24, [5-[[6-[6-(phenylmethoxy)-2-benzoxazolyl]-2-naphthalenyl]oxy]pentyl]propanedioic acid] | 540 | 
COc1ccc(-c2cc(OCc3ccccc3F)nc(-c3ccc4cc(OCCCC(C(=O)O)C(=O)O)ccc4c3)n2)cc1 [compound 43, [3-[[6-[4-[(2-fluorophenyl)methoxy]-6-(4-methoxyphenyl)-2-pyrimidinyl]-2-naphthalenyl]oxy]propyl]propanedioic acid] | 860 | 
